Laboratory results reported in patent US20090099158A1, “TETRAHYDROISOQUINOLINE COMPOUNDS AS MODULATORS OF THE HISTAMINE H3 RECEPTOR” (priority 2007, published 2009).

How the values were obtained:
[1] = molecular target: T1, cloned human H3 receptors (Homo sapiens, UniProt Q9Y5N1); test: H3 Receptor Binding (Human); details: cloned human H3 receptors stably expressed in SK-N-MC cells; average of the results obtained
T1 construct: expressed in transfected cells; host or cells: SK-N-MC cells
Procedure: Binding of compounds to the cloned human H3 receptors, stably expressed in SK-N-MC cells, was performed as described by Barbier, A. J. et al. (Br. J. Pharmacol. 2004, 143(5), 649-661). Data for compounds tested in this assay are presented in Table 1 as an average of the results obtained.

Rat H3 = Rat H3 (Rattus norvegicus, UniProt Q9QYN8); test: H3 Receptor Binding (Rat); set-up: A rat brain without cerebellum (Zivic Laboratories Inc., Pittsburgh, Pa.) was homogenized; tissue Zivic Laboratories Inc; host or cells: rat brain without cerebellum (membranes); details: rat brain (without cerebellum) membranes; 0.8 nM N-[3H]-α-methylhistamine, 60 min at 25° C.; IC50 converted to Ki; average
Procedure: A rat brain without cerebellum (Zivic Laboratories Inc., Pittsburgh, Pa.) was homogenized in 50 mM Tris-HCl/5 mM EDTA and centrifuged at 1,000 rpm for 5 min. The supernatant was removed and recentrifuged at 15,000 rpm for 30 min. Pellets were rehomogenized in 50 mM Tris/5 mM EDTA (pH 7.4). Membranes were incubated with 0.8 nM N-[^3H]-α-methylhistamine plus/minus test compounds for 60 min at 25° C. and harvested by rapid filtration over GF/C glass fiber filters (pretreated with 0.3% polyethylenimine) followed by four washes with buffer. Nonspecific binding was defined in the presence of 100 μM histamine. Inhibitory concentration (responsible for 50% inhibition of maximal effect, IC50) values were determined by a single site curve-fitting program (GraphPad, San Diego, Calif.) and converted to Ki values based on a N-[^3H]-α-methylhistamine dissociation constant (Kd) of 0.8 nM. Data for compounds tested in this assay are presented in Table 2 as an average of the results obtained.

T1 sequence (Q9Y5N1 whole entry): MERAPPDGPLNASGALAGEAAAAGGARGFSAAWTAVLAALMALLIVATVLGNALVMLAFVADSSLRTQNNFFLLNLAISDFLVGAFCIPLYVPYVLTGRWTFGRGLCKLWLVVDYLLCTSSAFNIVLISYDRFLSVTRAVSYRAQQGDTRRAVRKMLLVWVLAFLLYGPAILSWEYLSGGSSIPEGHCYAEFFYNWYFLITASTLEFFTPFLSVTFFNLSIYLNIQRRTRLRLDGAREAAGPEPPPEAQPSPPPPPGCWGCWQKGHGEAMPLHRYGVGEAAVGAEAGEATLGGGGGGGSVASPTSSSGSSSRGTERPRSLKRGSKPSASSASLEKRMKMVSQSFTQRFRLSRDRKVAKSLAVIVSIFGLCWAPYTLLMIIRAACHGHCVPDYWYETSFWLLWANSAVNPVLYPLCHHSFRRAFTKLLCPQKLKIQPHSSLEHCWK
Rat H3, sequence (Q9QYN8 whole entry): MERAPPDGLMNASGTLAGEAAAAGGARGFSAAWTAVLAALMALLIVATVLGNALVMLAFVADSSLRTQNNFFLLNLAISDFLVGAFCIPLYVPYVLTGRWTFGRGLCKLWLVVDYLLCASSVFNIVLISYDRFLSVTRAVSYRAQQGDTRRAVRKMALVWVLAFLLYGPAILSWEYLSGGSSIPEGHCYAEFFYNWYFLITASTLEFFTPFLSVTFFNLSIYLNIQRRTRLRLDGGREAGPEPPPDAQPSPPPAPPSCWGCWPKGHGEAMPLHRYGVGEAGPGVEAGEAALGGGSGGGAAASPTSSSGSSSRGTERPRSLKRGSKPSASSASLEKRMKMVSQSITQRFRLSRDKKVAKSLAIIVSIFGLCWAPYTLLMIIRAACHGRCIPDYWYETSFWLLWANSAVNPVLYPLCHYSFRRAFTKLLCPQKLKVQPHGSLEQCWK

SMILES | Ki [1] [µM] | Ki (Rat H3) [µM]
CCC(=O)N1CCc2cc(C(=O)N3CCCN(C4CCC4)CC3)ccc2C1 [Example 139, 1-[6-(4-Cyclobutyl-[1,4]diazepane-1-carbonyl)-3,4-dihydro-1H-isoquinolin-2-yl]-propan-1-one] | 0.001 | 0.007
O=C(c1ccc2c(c1)CCN(C(=O)c1ccccc1F)C2)N1CCCN(C2CCC2)CC1 [Example 136, [6-(4-Cyclobutyl-[1,4]diazepane-1-carbonyl)-3,4-dihydro-1H-isoquinolin-2-yl]-(2-fluoro-phenyl)-methanone] | 0.001 | 0.016
Cc1ccc(C(=O)N2CCc3cc(C(=O)N4CCCN(C5CCC5)CC4)ccc3C2)cc1F [Example 142, [6-(4-Cyclobutyl-[1,4]diazepane-1-carbonyl)-3,4-dihydro-1H-isoquinolin-2-yl]-(3-fluoro-4-methyl-phenyl)-methanone] | 0.001 | 0.028
O=C(c1ccc2c(c1)CCN(C(=O)c1ccc(Cl)cc1)C2)N1CCCN(C2CCC2)CC1 [Example 133, (4-Chloro-phenyl)-[6-(4-cyclobutyl-[1,4]diazepane-1-carbonyl)-3,4-dihydro-1H-isoquinolin-2-yl]-methanone] | 0.002 | 0.018
O=C(c1ccc2c(c1)CCN(C(=O)C1CCOC1)C2)N1CCCN(C2CCC2)CC1 (centres unmarked) [Example 137, [6-(4-Cyclobutyl-[1,4]diazepane-1-carbonyl)-3,4-dihydro-1H-isoquinolin-2-yl]-(tetrahydro-furan-3-yl)-methanone] | 0.001 | 0.008
O=C(c1ccc2c(c1)CCN(C(=O)c1ccccc1)C2)N1CCN(C2CCC2)CC1 [Example 27, (2-Benzoyl-1,2,3,4-tetrahydro-isoquinolin-6-yl)-(4-cyclobutyl-piperazin-1-yl)-methanone] | 0.009 | 0.084
CC(C)N1CCc2cc(C(=O)N3CCCN(C4CCC4)CC3)ccc2C1 [Example 177, (4-Cyclobutyl-[1,4]diazepan-1-yl)-(2-isopropyl-1,2,3,4-tetrahydro-isoquinolin-6-yl)-methanone] | 0.001 | 0.001
O=C(c1ccccc1)N1CCc2cc(C(=O)N3CCC[C@H]3CN3CCCC3)ccc2C1 [Example 48, (S)-Phenyl-[6-(2-pyrrolidin-1-ylmethyl-pyrrolidine-1-carbonyl)-3,4-dihydro-1H-isoquinolin-2-yl]-methanone] | 0.018 | 
O=C(c1ccc2c(c1)CCN(C(=O)c1ccccc1F)C2)N1CCN2CCCCC2C1 (centres unmarked) [Example 86, [2-(2-Fluoro-benzoyl)-1,2,3,4-tetrahydro-isoquinolin-6-yl]-(octahydro-pyrido[1,2-a]pyrazin-2-yl)-methanone] | 0.027 | 
O=C(c1ccc2c(c1)CCNC2)N1CCN(C2CCCCC2)CC1 [Example 9, (4-Cyclohexyl-piperazin-1-yl)-(1,2,3,4-tetrahydro-isoquinolin-6-yl)-methanone] | 0.014 | 
Cc1ccccc1C(=O)N1CCc2cc(C(=O)N3CCN4CCCCC4C3)ccc2C1 (centres unmarked) [Example 96, [2-(2-Methyl-benzoyl)-1,2,3,4-tetrahydro-isoquinolin-6-yl]-(octahydro-pyrido[1,2-a]pyrazin-2-yl)-methanone] | 0.015 | 
O=C(c1ccc2c(c1)CCN(C(=O)C1CCCCC1)C2)N1CCC(N2CCCCC2)CC1 [Example 157, [6-([1,4′]Bipiperidinyl-1′-carbonyl)-3,4-dihydro-1H-isoquinolin-2-yl]-cyclohexyl-methanone] | 0.11 | 
O=C(c1ccc2c(c1)CCN(C(=O)c1ccc(F)cc1F)C2)N1CCCN(C2CCC2)CC1 [Example 144, [6-(4-Cyclobutyl-[1,4]diazepane-1-carbonyl)-3,4-dihydro-1H-isoquinolin-2-yl]-(2,4-difluoro-phenyl)-methanone] | 0.001 | 0.032
CC(C)(C)c1ccc(C(=O)N2CCc3cc(C(=O)N4CCN(C5CCC5)CC4)ccc3C2)cc1 [Example 131, [2-(4-tert-Butyl-benzoyl)-1,2,3,4-tetrahydro-isoquinolin-6-yl]-(4-cyclobutyl-piperazin-1-yl)-methanone] | 0.078 | 
COc1cccc(C(=O)N2CCc3cc(C(=O)N4CCN(C5CCCCC5)CC4)ccc3C2)c1 [Example 79, (4-Cyclohexyl-piperazin-1-yl)-[2-(3-methoxy-benzoyl)-1,2,3,4-tetrahydro-isoquinolin-6-yl]-methanone] | 0.169 | 
O=C(c1ccc2c(c1)CCN(C(=O)c1cccc(Cl)c1)C2)N1CCN(C2CCC2)CC1 [Example 119, (3-Chloro-phenyl)-[6-(4-cyclobutyl-piperazine-1-carbonyl)-3,4-dihydro-1H-isoquinolin-2-yl]-methanone] | 0.011 | 

SMILES | Ki [1] [µM] | Ki (Rat H3) [µM]
O=C(c1ccc2c(c1)CCN(C(=O)c1ccc(F)cc1)C2)N1CCN(C2CCC2)CC1 [Example 125, (4-Cyclobutyl-piperazin-1-yl)-[2-(4-fluoro-benzoyl)-1,2,3,4-tetrahydro-isoquinolin-6-yl]-methanone] | 0.017 | 
CCC(=O)N1CCc2cc(C(=O)N3CCN(C4CCCC4)CC3)ccc2C1 [Example 63, 1-[6-(4-Cyclopentyl-piperazine-1-carbonyl)-3,4-dihydro-1H-isoquinolin-2-yl]-propan-1-one] | 0.061 | 
O=C(c1ccc2c(c1)CCN(C(=O)c1ccc(F)c(Cl)c1)C2)N1CCCN(C2CCC2)CC1 [Example 145, (3-Chloro-4-fluoro-phenyl)-[6-(4-cyclobutyl-[1,4]diazepane-1-carbonyl)-3,4-dihydro-1H-isoquinolin-2-yl]-methanone] | 0.001 | 
O=C(c1ccc2c(c1)CCN(C(=O)c1cccc(Cl)c1)C2)N1CCCN(C2CCC2)CC1 [Example 135, (3-Chloro-phenyl)-[6-(4-cyclobutyl-[1,4]diazepane-1-carbonyl)-3,4-dihydro-1H-isoquinolin-2-yl]-methanone] | 0.001 | 0.011
O=C(c1ccc2c(c1)CCN(C(=O)C1CCCCC1)C2)N1CCN2CCCCC2C1 (centres unmarked) [Example 152, Cyclohexyl-[6-(octahydro-pyrido[1,2-a]pyrazine-2-carbonyl)-3,4-dihydro-1H-isoquinolin-2-yl]-methanone] | 0.009 | 
CC(C)(C)C1CCN(C(=O)c2ccc3c(c2)CCN(C2CCCC2)C3)CC1 [Example 193, (4-tert-Butyl-piperidin-1-yl)-(2-cyclopentyl-1,2,3,4-tetrahydro-isoquinolin-6-yl)-methanone] | 0.24 | 
Cc1ccc(C(=O)N2CCc3cc(C(=O)N4CCN(C5CCCC5)CC4)ccc3C2)cc1 [Example 70, (4-Cyclopentyl-piperazin-1-yl)-[2-(4-methyl-benzoyl)-1,2,3,4-tetrahydro-isoquinolin-6-yl]-methanone] | 0.065 | 
COc1ccc(CC(=O)N2CCc3cc(C(=O)N4CCC[C@H]4CN4CCCC4)ccc3C2)cc1 [Example 61] | 0.007 | 
CC(C)(C)c1ccc(C(=O)N2CCc3cc(C(=O)N4CCN(C5CCCCC5)CC4)ccc3C2)cc1 [Example 84, [2-(4-tert-Butyl-benzoyl)-1,2,3,4-tetrahydro-isoquinolin-6-yl]-(4-cyclohexyl-piperazin-1-yl)-methanone] | 0.18 | 
O=C(c1ccc2c(c1)CCN(C1CCC1)C2)N1CCCCC1 [Example 185, (2-Cyclobutyl-1,2,3,4-tetrahydro-isoquinolin-6-yl)-piperidin-1-yl-methanone] | 2.1 | 
O=C(Cc1ccc(F)cc1)N1CCc2cc(C(=O)N3CCN(C4CCC4)CC3)ccc2C1 [Example 130, 1-[6-(4-Cyclobutyl-piperazine-1-carbonyl)-3,4-dihydro-1H-isoquinolin-2-yl]-2-(4-fluoro-phenyl)-ethanone] | 0.01 | 
O=C(c1ccc2c(c1)CCN(C(=O)c1ccc(Cl)cc1Cl)C2)N1CCN(C2CCC2)CC1 [Example 118, [6-(4-Cyclobutyl-piperazine-1-carbonyl)-3,4-dihydro-1H-isoquinolin-2-yl]-(2,4-dichloro-phenyl)-methanone] | 0.008 | 
O=C(c1ccc2c(c1)CCN(Cc1ccc(Cl)cc1)C2)N1CCN(C2CCC2)CC1 [Example 17, [2-(4-Chloro-benzyl)-1,2,3,4-tetrahydro-isoquinolin-6-yl]-(4-cyclobutyl-piperazin-1-yl)-methanone] | 0.015 | 
O=C(c1ccc2c(c1)CCN(C(=O)c1ccsc1)C2)N1CCN(C2CCC2)CC1 [Example 115, (4-Cyclobutyl-piperazin-1-yl)-[2-(thiophene-3-carbonyl)-1,2,3,4-tetrahydro-isoquinolin-6-yl]-methanone] | 0.011 | 
CN(C)[C@H]1CCN(C(=O)c2ccc3c(c2)CCN(C(=O)C2CCCCC2)C3)C1 [Example 156, (S)-Cyclohexyl-[6-(3-dimethylamino-pyrrolidine-1-carbonyl)-3,4-dihydro-1H-isoquinolin-2-yl]-methanone] | 0.03 | 
O=C(c1ccc2c(c1)CCN(C(=O)C1CCCO1)C2)N1CCCN(C2CCC2)CC1 (centres unmarked) [Example 138, [6-(4-Cyclobutyl-[1,4]diazepane-1-carbonyl)-3,4-dihydro-1H-isoquinolin-2-yl]-(tetrahydro-furan-2-yl)-methanone] | 0.001 | 
